Values of other authors, collected in patent publication US12350296B2, “Liquid propolis extract, its formulation and use thereof” (Apiotix Technologies D.O.O., priority 2019, dated 2025).
Read-outs that look alike come from different tables or passages of the source.

Tested on: subclinical mastitis
Settings: for healing (cure) of cases: subclinical mastitis caused by S. uberis

SMILES | healing (cure) of cases (therapy for 5 days) | healing (cure) of cases (therapy for 8 days) | healing (cure) of cases (two-day therapy) | bacteriological cure (daily i.mam. application during 8 days) | bacteriological cure (i.mam. application, after 5 days)
CC[C@@H]1CCN[C@H](C(=O)N[C@@H]([C@H]2O[C@H](SC)[C@H](O)[C@@H](O)[C@H]2O)[C@H](C)Cl)C1 [pirlimycin] | 68.8% | 80% | 58.1% |  | 
CO/N=C(\C(=O)N[C@@H]1C(=O)N2C(C(=O)O)=C(CSC(=O)c3ccco3)CS[C@H]12)c1csc(N)n1 [ceftiofur] |  |  |  | 66% | 54%
